Consider 3 compounds from US10655105B2, “Method for proliferation of pancreatic progenitor cells” (Takeda Pharmaceutical Company Limited, priority 2014, dated 2020).

Assay [1] relates to 297L1 cell-derived pancreatic progenitor cells (passage number: 7). The assay can be described thus: Differentiation induction of insulin-producing cells from proliferated pancreatic progenitor cells, NKX6.1/INSULIN immunofluorescence staining. Format: cell-based, human. Conditions: cultured 9 days in IMEM-option Zn++ medium with 1% B-27; FIG. 9. The text has this: Study was made on whether the proliferated and repetitively passaged pancreatic progenitor cells would have the ability to differentiate into INSULIN-producing cells. The cells used were 297L1 cell-derived pancreatic progenitor cells (passage number: 7). The pancreatic progenitor cells brought to a single cell state using Accutase were inoculated at 6×10^4 cells/well to a 96-well plate coated with Matrigel. The culture solution used was IMEM-option Zn^++ medium (containing 1% B-27®) supplemented with XAV939 (1 μM), Y27632 (10 μM), and bFGF (50 ng/ml). The cells were cultured for 2 days to render the cell density confluent. Then, the cells were washed with IMEM-option Zn^++ medium and then cultured for 9 days using IMEM-option Zn^++ medium (containing 1% B-27®) supplemented with ALKS inhibitor II. […] 4% PFA was added to the cells thus cultured, and the cells were fixed at room temperature for 30 minutes. The cells were further reacted with an anti-NKX6.1 antibody and an anti-INSULIN antibody (DAKO, A0564) as primary antibodies and further with an Alexa 488-labeled secondary antibody or an Alexa 568-labeled secondary antibody as a secondary antibody, sequentially, and then observed under a fluorescence microscope.

The test system is the same in assay [2]. Conditions: Stem Cell Research 2012, 8, 274-284; cited from earlier work.
Assay [3] relates to PDX1-positive cells differentiation-induced from human iPS cell line 253G1. The assay is described as follows: Induction of pancreatic progenitor cells from PDX1-positive cells (253G1 iPS-derived), anti-PDX1/anti-NKX6.1 immunofluorescence staining. The format is cell-based. The conditions noted are these: cultured 7 days, IMEM-option Zn++ medium with 1% B-27; XAV939 1 μM and/or bFGF 100 ng/ml; FIG. 1. The procedure: The PDX1-positive cells differentiation-induced on a Matrigel-coated dish according to Reference Example 1 were washed with IMEM-option Zn^++ medium and then further cultured for 7 days in IMEM-option Zn^++ medium (containing 1% B-27®) supplemented with XAV939 (1 μM) and/or bFGF (100 ng/ml) (PeproTech, Inc.).
In order to examine the expression of PDX1 and NKX6.1 proteins in the cells thus cultured, immunofluorescence staining was carried out using an anti-PDX1 antibody and an anti-NKX6.1 antibody. […] Then, the cells were reacted with an anti-PDX1 antibody (AF2419, R&D Systems, Inc.) and an anti-NKX6.1 antibody (55F55A12-c, Developmental Studies Hybridoma Bank) as primary antibodies and further with an Alexa 488-labeled secondary antibody or an Alexa 568-labeled secondary antibody (both from Life Technologies Corp.) as a secondary antibody, sequentially, and then observed under a fluorescence microscope.
The PDX1-positive cells differentiation-induced on a Matrigel-coated dish according to Reference Example 1 were washed with IMEM-option Zn^++ medium. […] The cells thus cultured were subjected to the immunofluorescence staining described in Example 1 and observed under a fluorescence microscope.

Turning to `Cc1cccc(-c2[nH]ncc2-c2ccc3ncccc3n2)n1` [ALKS inhibitor II], the “appearance of INSULIN-positive cells” value in assay [1] was “INSULIN-positive cells appeared”. In assay [2], the “induction of INSULIN-positive cells” value is “known to induce INSULIN-positive cells”.

`O=c1[nH]c(-c2ccc(C(F)(F)F)cc2)nc2c1CSCC2` [XAV939, 2-(4-trifluoromethylphenyl)-7,8-dihydro-5H-thiopyrano[4,3-d]pyrimidin-4(3H)-one]: the “cells expressing PDX1 and NKX6.1 (immunofluorescence staining)” value in assay [3] is “cells coexpressing PDX1 and NKX6.1 were few in number”.

Turning to “bFGF: FGF signal transduction activator, bFGF (FGF2)”, the “cells expressing PDX1 and NKX6.1 (immunofluorescence staining)” value in assay [3] is “cells coexpressing PDX1 and NKX6.1 were few in number”.
